In EP0377642B1, “HERBICIDES FOR WEED CONTROL IN RICE” (E.I. DU PONT DE NEMOURS AND COMPANY, priority 1987, dated 1989):

Legend:
Format in all cases: in vivo
Cyperus species = experiment: Field test, herbicidal efficacy in rice, Thailand, applied 36 days after seeding (Table 1); details: 100=complete control
Text: (§1) Methyl 2-[[[[(4-methoxy-6-methyl-1,3,5-triazin-2-yl)amino]carbonyl]amino]sulfonyl]benzoate (Compound 1) and mixtures thereof with other compounds were applied as a spray (using a hand sprayer) to rice (either transplanted or direct seeded) in several rice growing areas in Southeast Asia and in the U.S. Tables 1-28 contain the results of these tests and clearly exemplify the utility of this invention. The details of each application are included in the appropriate table. [drawing 2]

Sphenoclea zeylanica [1] = experiment: as above; details: 100=complete control
Text: as §1

Echinochloa crus-galli = experiment: Herbicidal efficacy in Indonesia, applied 2 weeks after transplanting (Table 6)
Text: as §1

Monochoria vaginalis [2] = experiment: as above
Text: as §1

Salvinia molesta = experiment: as above
Text: as §1

Scirpus juncoides = experiment: as above
Text: as §1

rice [3] = experiment: as above; details: 2 weeks after application
Text: as §1

transplanted rice = experiment: Crop tolerance of transplanted rice (Table 7); details: rating 0-10
Text: as §1

Cyperus difformis = experiment: Herbicidal efficacy alone and with 2,4-D in Malaysia, applied 30 days after seeding (Table 8); details: 22 days after treatment
Text: as §1

FIMBRISTYLIS MILIACEA = experiment: as above; details: 22 days after treatment
Text: as §1

Monochoria vaginalis [4] = experiment: as above; details: 22 days after treatment
Text: as §1

Scirpus grossus = experiment: as above; details: 22 days after treatment
Text: as §1

Sphenoclea zeylanica [5] = experiment: as above; details: 22 days after treatment
Text: as §1

[6] = tested on: transplanted rice (var. Nihonbare); experiment: Crop tolerance of transplanted rice, combinations with Thiobencarb, Dimepiperate, Esprocarb and Dymron (Table 15); details: 15 days after application
Text: as §1

rice [7] = experiment: Effects in combination with Thiobencarb and Bensulfuron Methyl on rice growth (Table 22); details: rate 8 g ai/ha; var. Koshihikari, applied 7 days after transplanting, rated 21 days after application
Text: as §1

[8] = 3 GAI/HA, 2 weeks after application
[9] = 3 GAI/HA, 5 weeks after application
[10] = 3 GAI/HA, 7 weeks after application
[11] = 4 GAI/HA, 2 weeks after application
[12] = 4 GAI/HA, 5 weeks after application
[13] = 4 GAI/HA, 7 weeks after application
[14] = 6 GAI/HA, 2 weeks after application
[15] = 6 GAI/HA, 5 weeks after application
[16] = 6 GAI/HA, 7 weeks after application
[17] = 8 GAI/HA, 2 weeks after application
[18] = 8 GAI/HA, 5 weeks after application
[19] = 8 GAI/HA, 7 weeks after application

COC(=O)c1ccccc1S(=O)(=O)NC(=O)Nc1nc(C)nc(OC)n1 [Compound 1, Methyl 2-[[[[(4-methoxy-6-methyl-1,3,5-triazin-2-yl)amino]carbonyl]amino]sulfonyl]benzoate]
Herbicidal efficacy CY 2WAA (Cyperus species; Trial 1, 2 GAI/HA): 33 | Herbicidal efficacy CY 2WAA (Cyperus species; Trial 1, 3 GAI/HA): 67 | Herbicidal efficacy CY 2WAA (Cyperus species; Trial 1, 4 GAI/HA): 67 | Herbicidal efficacy CY 2WAA (Cyperus species; Trial 1, 6 GAI/HA): 67 | Herbicidal efficacy CY 2WAA (Cyperus species; Trial 2, 2 GAI/HA): 0 | Herbicidal efficacy CY 2WAA (Cyperus species; Trial 2, 3 GAI/HA): 67 | Herbicidal efficacy CY 2WAA (Cyperus species; Trial 2, 4 GAI/HA): 33 | Herbicidal efficacy CY 2WAA (Cyperus species; Trial 2, 6 GAI/HA): 67 | Herbicidal efficacy SZ 2WAA (Sphenoclea zeylanica [1]; Trial 1, 2 GAI/HA): 100 | Herbicidal efficacy SZ 4WAA (Sphenoclea zeylanica [1]; Trial 1, 2 GAI/HA): 100 | Herbicidal efficacy SZ 6WAA (Sphenoclea zeylanica [1]; Trial 1, 2 GAI/HA): 100 | Herbicidal efficacy SZ 2WAA (Sphenoclea zeylanica [1]; Trial 1, 3 GAI/HA): 99 | Herbicidal efficacy SZ 4WAA (Sphenoclea zeylanica [1]; Trial 1, 3 GAI/HA): 100 | Herbicidal efficacy SZ 6WAA (Sphenoclea zeylanica [1]; Trial 1, 3 GAI/HA): 100 | Herbicidal efficacy SZ 2WAA (Sphenoclea zeylanica [1]; Trial 1, 4 GAI/HA): 100 | Herbicidal efficacy SZ 4WAA (Sphenoclea zeylanica [1]; Trial 1, 4 GAI/HA): 100 | Herbicidal efficacy SZ 6WAA (Sphenoclea zeylanica [1]; Trial 1, 4 GAI/HA): 100 | Herbicidal efficacy SZ 2WAA (Sphenoclea zeylanica [1]; Trial 1, 6 GAI/HA): 100 | Herbicidal efficacy SZ 4WAA (Sphenoclea zeylanica [1]; Trial 1, 6 GAI/HA): 100 | Herbicidal efficacy SZ 6WAA (Sphenoclea zeylanica [1]; Trial 1, 6 GAI/HA): 100 | Herbicidal efficacy SZ 2WAA (Sphenoclea zeylanica [1]; Trial 2, 2 GAI/HA): 97 | Herbicidal efficacy SZ 4WAA (Sphenoclea zeylanica [1]; Trial 2, 2 GAI/HA): 99 | Herbicidal efficacy SZ 6WAA (Sphenoclea zeylanica [1]; Trial 2, 2 GAI/HA): 99 | Herbicidal efficacy SZ 2WAA (Sphenoclea zeylanica [1]; Trial 2, 3 GAI/HA): 100 | Herbicidal efficacy SZ 4WAA (Sphenoclea zeylanica [1]; Trial 2, 3 GAI/HA): 100 | Herbicidal efficacy SZ 6WAA (Sphenoclea zeylanica [1]; Trial 2, 3 GAI/HA): 100 | Herbicidal efficacy SZ 2WAA (Sphenoclea zeylanica [1]; Trial 2, 4 GAI/HA): 99 | Herbicidal efficacy SZ 4WAA (Sphenoclea zeylanica [1]; Trial 2, 4 GAI/HA): 99 | Herbicidal efficacy SZ 6WAA (Sphenoclea zeylanica [1]; Trial 2, 4 GAI/HA): 100 | Herbicidal efficacy SZ 2WAA (Sphenoclea zeylanica [1]; Trial 2, 6 GAI/HA): 100 | Herbicidal efficacy SZ 4WAA (Sphenoclea zeylanica [1]; Trial 2, 6 GAI/HA): 100 | Herbicidal efficacy SZ 6WAA (Sphenoclea zeylanica [1]; Trial 2, 6 GAI/HA): 100 | % CONTROL EC (Echinochloa crus-galli; [8]): 20% | % CONTROL EC (Echinochloa crus-galli; [9]): 30% | % CONTROL EC (Echinochloa crus-galli; [10]): 0% | % CONTROL EC (Echinochloa crus-galli; [11]): 20% | % CONTROL EC (Echinochloa crus-galli; [12]): 30% | % CONTROL EC (Echinochloa crus-galli; [13]): 0% | % CONTROL EC (Echinochloa crus-galli; [14]): 20% | % CONTROL EC (Echinochloa crus-galli; [15]): 30% | % CONTROL EC (Echinochloa crus-galli; [16]): 0% | % CONTROL EC (Echinochloa crus-galli; [17]): 20% | % CONTROL EC (Echinochloa crus-galli; [18]): 30% | % CONTROL EC (Echinochloa crus-galli; [19]): 0% | % CONTROL MV (Monochoria vaginalis [2]; [8]): 100% | % CONTROL MV (Monochoria vaginalis [2]; [9]): 100% | % CONTROL MV (Monochoria vaginalis [2]; [10]): 100% | % CONTROL MV (Monochoria vaginalis [2]; [11]): 90% | % CONTROL MV (Monochoria vaginalis [2]; [12]): 100% | % CONTROL MV (Monochoria vaginalis [2]; [13]): 100% | % CONTROL MV (Monochoria vaginalis [2]; [14]): 100% | % CONTROL MV (Monochoria vaginalis [2]; [15]): 100% | % CONTROL MV (Monochoria vaginalis [2]; [16]): 100% | % CONTROL MV (Monochoria vaginalis [2]; [17]): 100% | % CONTROL MV (Monochoria vaginalis [2]; [18]): 100% | % CONTROL MV (Monochoria vaginalis [2]; [19]): 100% | % CONTROL SM (Salvinia molesta; [8]): 30% | % CONTROL SM (Salvinia molesta; [9]): 70% | % CONTROL SM (Salvinia molesta; [10]): 80% | % CONTROL SM (Salvinia molesta; [11]): 40% | % CONTROL SM (Salvinia molesta; [12]): 70% | % CONTROL SM (Salvinia molesta; [13]): 80% | % CONTROL SM (Salvinia molesta; [14]): 30% | % CONTROL SM (Salvinia molesta; [15]): 90% | % CONTROL SM (Salvinia molesta; [16]): 90% | % CONTROL SM (Salvinia molesta; [17]): 40% | % CONTROL SM (Salvinia molesta; [18]): 80% | % CONTROL SM (Salvinia molesta; [19]): 90% | % CONTROL SJ (Scirpus juncoides; [8]): 60% | % CONTROL SJ (Scirpus juncoides; [9]): 90% | % CONTROL SJ (Scirpus juncoides; [10]): 70% | % CONTROL SJ (Scirpus juncoides; [11]): 60% | % CONTROL SJ (Scirpus juncoides; [12]): 100% | % CONTROL SJ (Scirpus juncoides; [13]): 70% | % CONTROL SJ (Scirpus juncoides; [14]): 90% | % CONTROL SJ (Scirpus juncoides; [15]): 100% | % CONTROL SJ (Scirpus juncoides; [16]): 80% | % CONTROL SJ (Scirpus juncoides; [17]): 80% | % CONTROL SJ (Scirpus juncoides; [18]): 100% | % CONTROL SJ (Scirpus juncoides; [19]): 80% | % CONTROL RICE (rice [3]; 3 GAI/HA): 10% | % CONTROL RICE (rice [3]; 4 GAI/HA): 10% | % CONTROL RICE (rice [3]; 6 GAI/HA): 10% | % CONTROL RICE (rice [3]; 8 GAI/HA): 10% | CROP TOLERANCE (transplanted rice; 3 GAI/HA, 1 WAA): 0 | CROP TOLERANCE (transplanted rice; 3 GAI/HA, 2WAA): 0 | CROP TOLERANCE (transplanted rice; 3 GAI/HA, 4WAA): 0 | CROP TOLERANCE (transplanted rice; 3 GAI/HA, 6WAA): 0 | CROP TOLERANCE (transplanted rice; 4 GAI/HA, 1 WAA): 0 | CROP TOLERANCE (transplanted rice; 4 GAI/HA, 2WAA): 0 | CROP TOLERANCE (transplanted rice; 4 GAI/HA, 4WAA): 0 | CROP TOLERANCE (transplanted rice; 4 GAI/HA, 6WAA): 0 | CROP TOLERANCE (transplanted rice; 6 GAI/HA, 1 WAA): 1 | CROP TOLERANCE (transplanted rice; 6 GAI/HA, 2WAA): 0 | CROP TOLERANCE (transplanted rice; 6 GAI/HA, 4WAA): 0 | CROP TOLERANCE (transplanted rice; 6 GAI/HA, 6WAA): 0 | CROP TOLERANCE (transplanted rice; 8 GAI/HA, 1 WAA): 1 | CROP TOLERANCE (transplanted rice; 8 GAI/HA, 2WAA): 1 | CROP TOLERANCE (transplanted rice; 8 GAI/HA, 4WAA): 0 | CROP TOLERANCE (transplanted rice; 8 GAI/HA, 6WAA): 0 | % CONTROL CD (Cyperus difformis; 1 GAI/HA): 0% | % CONTROL CD (Cyperus difformis; 2 GAI/HA): 100% | % CONTROL CD (Cyperus difformis; 3 GAI/HA): 95% | % CONTROL CD (Cyperus difformis; 4 GAI/HA): 100% | % CONTROL CD (Cyperus difformis; 5 GAI/HA): 100% | % CONTROL FM (FIMBRISTYLIS MILIACEA; 1 GAI/HA): 0% | % CONTROL FM (FIMBRISTYLIS MILIACEA; 2 GAI/HA): 100% | % CONTROL FM (FIMBRISTYLIS MILIACEA; 3 GAI/HA): 50% | % CONTROL FM (FIMBRISTYLIS MILIACEA; 4 GAI/HA): 50% | % CONTROL FM (FIMBRISTYLIS MILIACEA; 5 GAI/HA): 20% | % CONTROL MV (Monochoria vaginalis [4]; 1 GAI/HA): 95% | % CONTROL MV (Monochoria vaginalis [4]; 2 GAI/HA): 95% | % CONTROL MV (Monochoria vaginalis [4]; 3 GAI/HA): 100% | % CONTROL MV (Monochoria vaginalis [4]; 4 GAI/HA): 100% | % CONTROL MV (Monochoria vaginalis [4]; 5 GAI/HA): 100% | % CONTROL SG (Scirpus grossus; 1 GAI/HA): 80% | % CONTROL SG (Scirpus grossus; 2 GAI/HA): 100% | % CONTROL SG (Scirpus grossus; 3 GAI/HA): 95% | % CONTROL SG (Scirpus grossus; 4 GAI/HA): 95% | % CONTROL SG (Scirpus grossus; 5 GAI/HA): 100% | % CONTROL SZ (Sphenoclea zeylanica [5]; 1 GAI/HA): 0% | % CONTROL SZ (Sphenoclea zeylanica [5]; 2 GAI/HA): 100% | % CONTROL SZ (Sphenoclea zeylanica [5]; 3 GAI/HA): 100% | % CONTROL SZ (Sphenoclea zeylanica [5]; 4 GAI/HA): 100% | % CONTROL SZ (Sphenoclea zeylanica [5]; 5 GAI/HA): 100% | CROP TOLERANCE (Nihonbare) DW, dry weight relative to untreated check ([6]; 4 GAI/HA): 107% | CROP TOLERANCE (Nihonbare) PH, plant height relative to untreated check ([6]; 4 GAI/HA): 103% | CROP TOLERANCE (Nihonbare) VA, visual crop injury ([6]; 4 GAI/HA): 0% | CROP TOLERANCE (Nihonbare) DW, dry weight relative to untreated check ([6]; 8 GAI/HA): 83% | CROP TOLERANCE (Nihonbare) PH, plant height relative to untreated check ([6]; 8 GAI/HA): 95% | CROP TOLERANCE (Nihonbare) VA, visual crop injury ([6]; 8 GAI/HA): 3% | CROP TOLERANCE DW (Dry weight relative to untreated check) (rice [7]): 92% | CROP TOLERANCE PH (Plant height relative to untreated check) (rice [7]): 99% | CROP TOLERANCE VA (Visual crop injury) (rice [7]): 0.5%
